Results: patent US20240174723A1, “STAPLED ANTIMICROBIAL PEPTIDES (STAMPS) AND USES THEREOF” (Lytica Therapeutics, Inc., priority 2021, published 2024)
Values after ≈ are worked out from the molar mass of the structure shown. Positions of bridges follow the written chain, without caps; N, C: chain ends. Non-standard residues stand in square brackets, D forms with d. Residues, ends and D or L forms follow the SMILES beside them. S5 = C=CCCC[C@](C)(N)C(=O)O; Orn = NCCC[C@H](N)C(=O)O; Dab = NCC[C@H](N)C(=O)O; Dap = NC[C@H](N)C(=O)O

Tests used:
E. coli = assay type: cell-based, Escherichia coli
Summary of the method: (§1)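 Colonies are grown overnight at 37 °C, diluted and regrown 3-4 h. Bacteria in MHB or MHB II are then added to serial peptide dilutions to reach 5×10^5 CFU/ml. Plates are incubated 20-24 h at 37 °C and scored for the lowest concentration without visible growth.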

A. baumannii = assay type: cell-based, Acinetobacter baumannii
Summary of the method: as §1

P. aeruginosa = assay type: cell-based, Pseudomonas aeruginosa
Summary of the method: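 MIC taken as lowest peptide concentration with no visible growth after 20-24 h at 37 °C. Peptide serial dilutions from water stocks met P. aeruginosa inoculum (5×10^5 CFU/ml final) in MHB or MHB II, per a CLSI-adapted microbroth protocol.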

K. pneumoniae = assay type: cell-based, Klebsiella pneumoniae
Summary of the method: as §1

S. aureus = assay type: cell-based, Staphylococcus aureus
Summary of the method: as §1

in vitro [1] = assay type: cell-based; settings: human
Summary of the method: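 LDH release (absorbance at 490 nm) measured in the media of cells treated with serially diluted StAMPs or vehicle at 37 °C: 90 min for renal RPTEC, 48 h for liver HepG2. Cells were seeded overnight beforehand and media refreshed before dosing.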

in vitro [2] = assay type: cell-based; settings: human, Inhibitory Concentration at 50% Cytotoxicity (IC50) Human Liver Cells (HepG2)
Summary of the method: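 Cytotoxicity read by CellTiter-Glo luminescence after 48 h at 37 °C exposure to serially diluted StAMPs or vehicle. HepG2 cells were grown in EMEM plus 10% FBS and given 4 h to attach before dosing; peptides came from a 5 mg/mL aqueous stock.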

Row | Compound | Minimum Inhibitory Concentration (MIC) E. coli (E. coli) | Minimum Inhibitory Concentration (MIC) A. baumannii (A. baumannii) | Minimum Inhibitory Concentration (MIC) P. aeruginosa (P. aeruginosa) | Minimum Inhibitory Concentration (MIC) K. pneumoniae (K. pneumoniae) | Minimum Inhibitory Concentration (MIC) S. aureus (S. aureus) | IC50 at 90 min (in vitro [1]) | IC50 at 48 hours (in vitro [2])
1 | CC(C)[C@@H]1NC(=O)[C@@](C)(NC(=O)[C@H](C)NC(=O)[C@H](CN)NC(=O)CNC(=O)[C@H](Cc2ccccc2)NC(=O)[C@H](CN)NC(=O)[C@H](CN)NC(=O)[C@H](CN)NC(=O)[C@H](CN)NC(=O)[C@H](CN)NC(=O)[C@]2(C)CCCC=CCCC[C@](C)(NC(=O)CN)C(=O)NCC(=O)N[C@@H](CN)C(=O)N[C@@H](Cc3ccccc3)C(=O)N2)CCCC=CCCC[C@@](C)(C(=O)N[C@@H](C)C(=O)N[C@@H](CCCCN)C(=O)N[C@@H](CCCCN)C(N)=O)NC(=O)[C@H](CCC(=O)O)NC(=O)CNC1=O [compound 78] (H-G[S5]G[Dap]F[S5][Dap][Dap][Dap][Dap][Dap]FG[Dap]A[S5]VGE[S5]AKK-NH2; staple 2-6, 16-20) | 16 µg/mL | 8 µg/mL | 2 µg/mL | 16 µg/mL | >64 µg/mL | > 200 µg/mL | > 200 µg/mL
2 | CC(C)[C@@H]1NC(=O)[C@H](C(C)C)NC(=O)[C@@](C)(NC(=O)[C@H](C)NC(=O)[C@H](CCCCN)NC(=O)CNC(=O)[C@H](Cc2ccccc2)NC(=O)[C@H](CCCCN)NC(=O)[C@H](CCCCN)NC(=O)[C@H](CCCCN)NC(=O)[C@H](CCCCN)NC(=O)[C@H](CCCCN)NC(=O)[C@]2(C)CCCC=CCCC[C@](C)(NC(=O)CN)C(=O)NCC(=O)N[C@@H](CCCCN)C(=O)N[C@@H](Cc3ccccc3)C(=O)N2)CCCC=CCCC[C@@](C)(C(=O)N[C@@H](C)C(=O)N[C@@H](CCCCN)C(=O)N[C@@H](CCCCN)C(=O)NCC(=O)NCC(=O)N[C@@H](CCC(=O)O)C(N)=O)NC(=O)[C@H](CCC(=O)O)NC1=O [compound 32] (H-G[S5]GKF[S5]KKKKKFGKA[S5]VVE[S5]AKKGGE-NH2; staple 2-6, 16-20) | 4 µg/mL | 4 µg/mL | 4 µg/mL | 8 µg/mL | >64 µg/mL | ~200 µg/mL (≈ 70.2 µM) | > 200 µg/mL
3 | CC(C)[C@@H]1NC(=O)[C@@](C)(NC(=O)[C@H](C)NC(=O)[C@H](CCCCN)NC(=O)[C@H](Cc2c[nH]c3ccccc23)NC(=O)[C@H](Cc2ccccc2)NC(=O)[C@H](CCCCN)NC(=O)[C@H](CCCCN)NC(=O)[C@H](CCCCN)NC(=O)[C@H](CO)NC(=O)[C@H](Cc2c[nH]cn2)NC(=O)[C@]2(C)CCCC=CCCC[C@](C)(NC(=O)CN)C(=O)NCC(=O)N[C@@H](CCCCN)C(=O)N[C@@H](Cc3ccccc3)C(=O)N2)CCCC=CCCC[C@@](C)(C(=O)N[C@@H](C)C(=O)N[C@@H](CCCCN)C(=O)N[C@@H](CCCCN)C(N)=O)NC(=O)[C@H](CCC(=O)O)NC(=O)CNC1=O [compound 69] (H-G[S5]GKF[S5]HSKKKFWKA[S5]VGE[S5]AKK-NH2; staple 2-6, 16-20) | 4 µg/mL | 4 µg/mL | 8 µg/mL | 8 µg/mL | 32 µg/mL | 24 µg/mL (≈ 9.02 µM) | 23 µg/mL (≈ 8.64 µM)
4 | CC(C)[C@@H]1NC(=O)[C@@](C)(NC(=O)[C@H](C)NC(=O)[C@H](CCCCN)NC(=O)CNC(=O)[C@H](Cc2ccccc2)NC(=O)[C@H](CCCCN)NC(=O)[C@H](CCCCN)NC(=O)[C@H](CCCCN)NC(=O)[C@H](CO)NC(=O)[C@H](Cc2c[nH]cn2)NC(=O)[C@]2(C)CCCC=CCCC[C@](C)(NC(=O)CN)C(=O)NCC(=O)N[C@@H](CCCCN)C(=O)N[C@@H](Cc3ccccc3)C(=O)N2)CCCC=CCCC[C@@](C)(C(=O)N[C@@H](C)C(=O)N[C@@H](CCCCN)C(=O)N[C@@H](CCCCN)C(N)=O)NC(=O)[C@H](CCC(=O)O)NC(=O)[C@H](Cc2ccc(O)cc2)NC1=O [compound 13] (H-G[S5]GKF[S5]HSKKKFGKA[S5]VYE[S5]AKK-NH2; staple 2-6, 16-20) | 3 µg/mL | 2 µg/mL | 4 µg/mL | 8 µg/mL | >64 µg/mL | > 200 µg/mL | > 200 µg/mL
5 | CC(C)[C@@H]1NC(=O)[C@@](C)(NC(=O)[C@H](C)NC(=O)[C@H](CCN)NC(=O)CNC(=O)[C@H](Cc2ccccc2)NC(=O)[C@H](CCCCN)NC(=O)[C@H](CCCCN)NC(=O)[C@H](CCCCN)NC(=O)[C@H](CCCCN)NC(=O)[C@H](CCCCN)NC(=O)[C@]2(C)CCCC=CCCC[C@](C)(NC(=O)CN)C(=O)NCC(=O)N[C@@H](CCCCN)C(=O)N[C@@H](Cc3ccccc3)C(=O)N2)CCCC=CCCC[C@@](C)(C(=O)N[C@@H](C)C(=O)N[C@@H](CCCCN)C(=O)N[C@@H](CCCCN)C(N)=O)NC(=O)[C@H](CCC(=O)O)NC(=O)CNC1=O [compound 39] (H-G[S5]GKF[S5]KKKKKFG[Dab]A[S5]VGE[S5]AKK-NH2; staple 2-6, 16-20) | 2 µg/mL | 2 µg/mL | 4 µg/mL | 8 µg/mL | >64 µg/mL | 115 µg/mL (≈ 45.3 µM) | 140 µg/mL (≈ 55.2 µM)
6 | CC(C)[C@@H]1NC(=O)[C@@](C)(NC(=O)[C@H](C)NC(=O)[C@H](CCCCN)NC(=O)CNC(=O)[C@H](Cc2ccccc2)NC(=O)[C@H](CCCCN)NC(=O)[C@H](CCCCN)NC(=O)[C@H](CCCCN)NC(=O)[C@H](CO)NC(=O)[C@H](Cc2c[nH]cn2)NC(=O)[C@]2(C)CCCC=CCCC[C@](C)(NC(=O)CN)C(=O)NCC(=O)N[C@@H](Cc3c[nH]c4ccccc34)C(=O)N[C@@H](Cc3ccccc3)C(=O)N2)CCCC=CCCC[C@@](C)(C(=O)N[C@@H](C)C(=O)N[C@@H](CCCCN)C(=O)N[C@@H](CCCCN)C(N)=O)NC(=O)[C@H](CCC(=O)O)NC(=O)CNC1=O [compound 58] (H-G[S5]GWF[S5]HSKKKFGKA[S5]VGE[S5]AKK-NH2; staple 2-6, 16-20) | 16 µg/mL | 8 µg/mL | 32 µg/mL | >64 µg/mL | >64 µg/mL | > 200 µg/mL | > 200 µg/mL
7 | CC(C)[C@@H]1NC(=O)[C@@](C)(NC(=O)[C@H](C)NC(=O)[C@H](CCCN)NC(=O)CNC(=O)[C@H](Cc2ccccc2)NC(=O)[C@H](CCCN)NC(=O)[C@H](CCCN)NC(=O)[C@H](CCCN)NC(=O)[C@H](CCCN)NC(=O)[C@H](CCCN)NC(=O)[C@]2(C)CCCC=CCCC[C@](C)(NC(=O)CN)C(=O)NCC(=O)N[C@@H](CCCN)C(=O)N[C@@H](Cc3ccccc3)C(=O)N2)CCCC=CCCC[C@@](C)(C(=O)N[C@@H](C)C(=O)N[C@@H](CCCN)C(=O)N[C@@H](CCCN)C(N)=O)NC(=O)[C@H](CCC(=O)O)NC(=O)CNC1=O [compound 24] (H-G[S5]G[Orn]F[S5][Orn][Orn][Orn][Orn][Orn]FG[Orn]A[S5]VGE[S5]A[Orn][Orn]-NH2; staple 2-6, 16-20) | 4 µg/mL | 2 µg/mL | 2 µg/mL | 32 µg/mL | 64 µg/mL | 100 µg/mL (≈ 41 µM) | 44 µg/mL (≈ 18 µM)
8 | CC(C)[C@@H]1NC(=O)[C@@](C)(NC(=O)[C@H](C)NC(=O)[C@H](CCCCN)NC(=O)CNC(=O)[C@H](Cc2ccccc2)NC(=O)[C@H](CCCCN)NC(=O)[C@H](CCCCN)NC(=O)[C@H](CCCCN)NC(=O)[C@H](CO)NC(=O)[C@H](Cc2c[nH]cn2)NC(=O)[C@]2(C)CCCC=CCCC[C@](C)(NC(=O)CN)C(=O)NCC(=O)N[C@@H](CCCCN)C(=O)N[C@@H](Cc3ccccc3)C(=O)N2)CCCC=CCCC[C@@](C)(C(=O)N[C@@H](C)C(=O)N[C@@H](CCCCN)C(=O)N[C@@H](CCCCN)C(N)=O)NC(=O)[C@H](CC(N)=O)NC(=O)CNC1=O [compound 18] (H-G[S5]GKF[S5]HSKKKFGKA[S5]VGN[S5]AKK-NH2; staple 2-6, 16-20) | 4 µg/mL | 2 µg/mL | 4 µg/mL | 64 µg/mL | >64 µg/mL | ~200 µg/mL (≈ 79.5 µM) | > 200 µg/mL
